Reference: the supplement of paper PMC13380429
± gives the standard deviation of the averaged measurements.

Experiments:
Conditions in all cases: 72 h
[1] = system: Caco-2; assay: cell viability relative to DMSO; higher = less toxic
[2] = system: Calu-3; assay: as above
[3] = system: HepG2; assay: as above
[4] = system: U2OS; assay: as above
[5] = system: Vero E6; assay: as above
[6] = system: Caco-2; assay: relative viability EC50 (midpoint between 100% and the lowest measured viability); higher = less toxic
[7] = system: Calu-3; assay: as above
[8] = system: HepG2; assay: as above
[9] = system: U2OS; assay: as above
[10] = system: Vero E6; assay: as above
[11] = system: Caco-2; assay: drug sensitivity score (DSS) for viability; higher = more toxic; extreme values may be limits of the assay
[12] = system: Calu-3; assay: as above
[13] = system: HepG2; assay: as above
[14] = system: U2OS; assay: as above
[15] = system: Vero E6; assay: as above

Compound | cell viability ([1]; 1 nM) [%] | cell viability ([1]; 10 nM) [%] | cell viability ([1]; 100 nM) [%] | cell viability ([1]; 1000 nM) [%] | cell viability ([1]; 10000 nM) [%] | cell viability ([2]; 1 nM) [%] | cell viability ([2]; 10 nM) [%] | cell viability ([2]; 100 nM) [%] | cell viability ([2]; 1000 nM) [%] | cell viability ([2]; 10000 nM) [%] | cell viability ([3]; 1 nM) [%] | cell viability ([3]; 10 nM) [%] | cell viability ([3]; 100 nM) [%] | cell viability ([3]; 1000 nM) [%] | cell viability ([3]; 10000 nM) [%] | cell viability ([4]; 1 nM) [%] | cell viability ([4]; 10 nM) [%] | cell viability ([4]; 100 nM) [%] | cell viability ([4]; 1000 nM) [%] | cell viability ([4]; 10000 nM) [%] | cell viability ([5]; 1 nM) [%] | cell viability ([5]; 10 nM) [%] | cell viability ([5]; 100 nM) [%] | cell viability ([5]; 1000 nM) [%] | cell viability ([5]; 10000 nM) [%] | relative viability EC50 [6] [µM] | relative viability EC50 [7] [µM] | relative viability EC50 [8] [µM] | relative viability EC50 [9] [µM] | relative viability EC50 [10] [µM] | drug sensitivity score [11] | drug sensitivity score [12] | drug sensitivity score [13] | drug sensitivity score [14] | drug sensitivity score [15]
CC(=C(CCO)SSCC1CCCO1)N(C=O)Cc1cnc(C)nc1N (stereo in doubt) [fursultiamine] | 112 | 91.6 | 97.6 | 106 | 96 | 98.5 | 101 | 108 | 110 | 114 | 93.3 | 87.5 | 90.2 | 110 | 97.8 | 101 | 102 | 98.7 | 97.8 | 98.2 | 106 | 95.5 | 99.2 | 97.3 | 102 | > 10 | > 10 | > 10 | > 10 | > 10 | 0 | 0 | 0 | 0 | 0
C[C@H]1NC(=O)NC1=O [5-methylhydantoin-(D)] | 97.5 ± 3.3 | 94.4 ± 0.14 | 104 ± 2.3 | 95.3 ± 5.5 | 101 ± 2.6 | 95.5 ± 5.9 | 99.6 ± 5 | 94.5 ± 3.2 | 102 ± 3 | 101 ± 6.9 | 93 ± 4.9 | 100 ± 0.64 | 93.3 ± 5.9 | 98.1 ± 8.6 | 106 ± 2.8 | 97.85 ± 0.49 | 100 ± 5 | 98.8 ± 5.1 | 98.2 ± 2.3 | 100 ± 2.4 | 97.1 ± 7.1 | 102 ± 4.5 | 96.4 ± 0.71 | 99.4 ± 0.57 | 100 ± 8 | > 10 | > 10 | > 10 | > 10 | > 10 | 0 | 0 | 0 | 0 | 0
C[C@H](Nc1ncnc2[nH]cnc12)c1cc2ccc(F)cc2nc1-c1ccccn1 [AMG319] | 100 ± 4.2 | 104 ± 6.4 | 98.5 ± 1.3 | 93.4 ± 5.8 | 95 ± 13 | 103 ± 0.64 | 97.2 ± 1.3 | 108 ± 8.1 | 100 ± 13 | 96.5 ± 2.5 | 103 ± 2.3 | 96.5 ± 11 | 115 ± 5 | 97.8 ± 6.2 | 99.3 ± 5.4 | 99 | 101 | 98.3 | 102 | 101 | 98.8 ± 3.9 | 97.8 ± 0.85 | 98.5 ± 1.2 | 92.2 ± 2.3 | 83.7 ± 4.1 | > 10 | > 10 | > 10 | > 10 | > 10 | 0.2 ± 0.28 | 0 | 0 | 0 | 0.75 ± 0.35
CCN(CC)CCCCC1CCN(CC(=O)N2c3ccccc3C(=O)Nc3cccnc32)CC1 [AQ-RA741] | 101 | 90.9 | 98.2 | 86.4 | 97.1 | 105 | 94.7 | 108 | 109 | 96.4 | 100 | 102 | 102 | 101 | 90.1 | 97.1 | 96.3 | 105 | 98.6 | 104 | 102 | 106 | 96.7 | 97.8 | 95.9 | > 10 | > 10 | > 10 | > 10 | > 10 | 0 | 0 | 0 | 0 | 0
COc1ccc2cc(C(C)C(=O)Oc3ccc(C(N)=S)cc3)ccc2c1 (stereo not given) [ATB-346] | 90 | 102 | 93.7 | 89.6 | 98.6 | 100 | 102 | 98.8 | 102 | 101 | 98.2 | 88.4 | 97.2 | 98.7 | 97.7 | 99.7 | 100 | 99.1 | 99.9 | 96.9 | 100 | 94.3 | 95.7 | 94.4 | 97.6 | > 10 | > 10 | > 10 | > 10 | > 10 | 0 | 0 | 0 | 0 | 0
Cc1c(-c2ccnn2C)cc(C(=O)NCc2ccc(S(C)(=O)=O)cn2)c(=O)n1-c1cccc(C(F)(F)F)c1 [AZD9668] | 93.9 | 101 | 106 | 96.9 | 101 | 94.5 | 103 | 99.9 | 92.9 | 97.1 | 101 | 102 | 98 | 108 | 103 | 97 | 93.6 | 102 | 95.7 | 102 | 97.3 | 102 | 89.7 | 92.2 | 107 | > 10 | > 10 | > 10 | > 10 | > 10 | 0 | 0 | 0 | 0 | 0
COC(=O)C1=C(C)N(C)C(C)=C(C(=O)OC)C1c1ccc(C(F)(F)F)cc1 [BAY-W-9798] | 91.8 | 99.4 | 98.9 | 97.1 | 95.4 | 95.1 | 103 | 93.4 | 98.1 | 100 | 96.7 | 93.3 | 106 | 96.3 | 101 | 96.9 | 102 | 96.4 | 102 | 103 | 93.7 | 92.5 | 94.2 | 96.3 | 107 | > 10 | > 10 | > 10 | > 10 | > 10 | 0 | 0 | 0 | 0 | 0
N=C(N)SCc1ccc(B(O)O)cc1 [BC-11] | 102 | 101 | 96.1 | 108 | 92.4 | 92.3 | 101 | 105 | 107 | 99.6 | 107 | 99.7 | 99.8 | 88.6 | 92.8 | 102 | 102 | 98.8 | 97.1 | 97.1 | 108 | 96.6 | 97.9 | 101 | 99.8 | > 10 | > 10 | > 10 | > 10 | > 10 | 0 | 0 | 0.4 | 0 | 0
NCCCC[C@H](NC(=O)[C@@H](Cc1cc(Br)c(O)c(Br)c1)NC(=O)N1CCC(N2Cc3ccccc3NC2=O)CC1)C(=O)N1CCN(c2ccncc2)CC1 [BIBN4096] | 88.6 | 97 | 101 | 90.3 | 100 | 93.7 | 96.9 | 100 | 110 | 105 | 102 | 97.2 | 92.4 | 97.5 | 102 | 95.8 | 98.5 | 94.8 | 84.5 | 91.6 | 102 | 97.2 | 98.6 | 99.1 | 104 | > 10 | > 10 | > 10 | > 10 | > 10 | 0 | 0 | 0 | 0.3 | 0
CCOC(=O)[C@]12CC1/C(=N\O)c1ccccc1O2 (stereo not given in full) [CPCCOEt] | 103 | 94.7 | 89.2 | 98.8 | 104 | 94.1 | 105 | 92.3 | 98.4 | 95.4 | 91.7 | 102 | 93.5 | 104 | 99.2 | 98.7 | 92.2 | 96.4 | 94.4 | 96.4 | 93.5 | 99.1 | 90.6 | 95.2 | 110 | > 10 | > 10 | > 10 | > 10 | > 10 | 0 | 0 | 0 | 0 | 0
O=C(c1cc(C2CC2)on1)N(C1CCCCC1)C1CCCCC1 [CYM-5541] | 94.9 | 97.8 | 97.5 | 99.4 | 90 | 102 | 98.1 | 97.2 | 96.8 | 99 | 98.6 | 93.9 | 98.4 | 92.3 | 89.6 | 98 | 97.8 | 96.3 | 97.2 | 94.4 | 106 | 103 | 99.5 | 95.3 | 99.6 | > 10 | > 10 | > 10 | > 10 | > 10 | 0 | 0 | 0 | 0 | 0
OC[C@@H](O)[C@@H](O[C@@H]1O[C@H](CO)[C@H](O)[C@H](O)[C@H]1O)[C@H](O)[C@@H](O)CO [D-LACTITOL MONOHYDRATE] | 92.3 | 92.3 | 98.6 | 103 | 97.2 | 106 | 94.9 | 99.6 | 96.3 | 93.5 | 94 | 105 | 96.2 | 89.2 | 97.4 | 101 | 96.9 | 95.6 | 99.8 | 103 | 100 | 98.6 | 95.4 | 92.8 | 99.3 | > 10 | > 10 | > 10 | > 10 | > 10 | 0 | 0 | 0 | 0 | 0
CCN(CC)c1ccc(/C=N/NC(=O)c2ccc(O)cc2)cc1 [DY131] | 94.3 | 96.4 | 98.4 | 95.4 | 98.2 | 95.4 | 91.5 | 99.8 | 97.8 | 95.3 | 102 | 105 | 95.9 | 105 | 83.4 | 99.6 | 97.5 | 101 | 95.4 | 97.6 | 107 | 98.3 | 101 | 102 | 95.1 | > 10 | > 10 | > 10 | > 10 | > 10 | 0 | 0 | 0.2 | 0 | 0
C[C@]12CCC(=O)C[C@@H]1CC[C@@H]1[C@@H]2CC[C@]2(C)[C@@H](O)CC[C@@H]12 [Dihydrotestosterone] | 108 | 93.1 | 103 | 102 | 97.5 | 97.6 | 99.9 | 101 | 98.9 | 94.3 | 112 | 95.8 | 99.3 | 106 | 95.3 | 98.2 | 104 | 94.8 | 103 | 98.9 | 106 | 99.3 | 101 | 100 | 104 | > 10 | > 10 | > 10 | > 10 | > 10 | 0 | 0 | 0 | 0 | 0
